Assay type in all cases: functional
Assay [1] relates to Mus sp. In words: Sedative activity was evaluated in mice after s.c. administration of 20 mg/kg. As to conditions: for inhibition in vivo at 20 mg/kg: Mus sp., sc; for Inhibition: 20 mg/kg.
The test system of assay [2] is Mus sp. Put plainly: Analgesic activity was evaluated in mice after s.c. administration of 20 mg/kg. As to conditions: for inhibition in vivo at 20 mg/kg: Mus sp., sc; for Inhibition: 20 mg/kg.
Assay [3] deals with Mus sp. In words: Sedative activity was evaluated in mice after s.c. administration of 10 mg/kg. As to conditions: sc.
Assay [4] deals with Mus sp. Put plainly: Analgesic activity was evaluated in mice after s.c. administration of 10 mg/kg. As to conditions: sc.

What is called inhibition in vivo is the percentage by which the read-out fell short of the control. Higher therefore signals a strong effect. A word on the Inhibition: it is the drop in the measured response relative to a control, in per cent.

On to `Cc1ccc(C(=O)CCN2CC[N+]3(CCCC3)CC2)cc1`, for which the figures for the inhibition in vivo at 20 mg/kg with Mus sp. [1] and with Mus sp. [2] were 14% and 25%, respectively.
The matching figures for `O=C1CCC(=O)N1CCCN1CC[N+]2(CCCC2)CC1`: 10% and 20%.
The matching figures for `O=C(CCN1CC[N+]2(CCCC2)CC1)c1cccc([N+](=O)[O-])c1`: 0% and 59%.
The matching figures for `O=[N+]([O-])c1ccc(/C=C/CN2CC[N+]3(CCCC3)CC2)cc1`: 10% and 24%.
For the compound `OC(CCl)CN1CC[N+]2(CCCC2)CC1.[Br-]` (stereo in doubt; 7a), the Inhibition in the assay on Mus sp. [1] and in the assay with Mus sp. [2] was 0% in each case.
Regarding `Clc1ccc(/C=C/CN2CC[N+]3(CCCC3)CC2)cc1`, the inhibition in vivo at 20 mg/kg in the assay on Mus sp. [1] is 12%; in the assay on Mus sp. [2], 19%.
With `OC(CCl)CN1CC[N+]2(CCCC2)CC1.[Br-]` (stereo in doubt; 3), the Inhibition with Mus sp. [1] was 57%; with Mus sp. [2], 64%.
For the compound `c1ccc(OCCCCN2CC[N+]3(CCCC3)CC2)cc1`, the inhibition in vivo at 20 mg/kg in the assay on Mus sp. [1] was 4%; in the assay on Mus sp. [2], 9%.
For the compound `C=CCN1CC[N+]2(CCCC2)CC1`, the inhibition in vivo at 10 mg/kg worked out at 0% in the assay on Mus sp. [3] and 45% in the assay with Mus sp. [4]. Also, the inhibition in vivo at 20 mg/kg in the assay with Mus sp. [1] was 0%; in the assay on Mus sp. [2], 100%.
For the compound `O=C(CCN1CC[N+]2(CCCC2)CC1)c1ccccc1`, the results for the inhibition in vivo at 20 mg/kg in the assay on Mus sp. [1] and with Mus sp. [2] were 11% and 25%, respectively.
Turning to `OCCN1CC[N+]2(CCCC2)CC1`, the inhibition in vivo at 20 mg/kg worked out at 0% in the assay with Mus sp. [1] and 10% in the assay on Mus sp. [2].
Consider `O=C(CCN1CC[N+]2(CCCC2)CC1)c1ccc(O)cc1`, for which the inhibition in vivo at 20 mg/kg was 85% with Mus sp. [1] and 100% in the assay on Mus sp. [2]. Moreover, in the assay on Mus sp. [4], the inhibition in vivo at 10 mg/kg was determined as 77%.
Consider `O=[N+]([O-])c1cccc(/C=C/CN2CC[N+]3(CCCC3)CC2)c1`, for which the figures for the inhibition in vivo at 20 mg/kg in the assay with Mus sp. [1] and in the assay on Mus sp. [2] were 12% and 32%, respectively.
The matching figures for `C1CC[N+]2(C1)CCN(CCC1OCCO1)CC2`: 25% and 36%.
Consider `O=C(CCN1CC[N+]2(CCCC2)CC1)c1ccsc1`, for which the values for the inhibition in vivo at 20 mg/kg in the assay with Mus sp. [1] and in the assay on Mus sp. [2] were 3% and 12%, respectively.
For `O=C(CCN1CC[N+]2(CCCC2)CC1)c1ccoc1` the same measures were 0% and 15%.
The matching figures for `CCN1CC[N+]2(CCCC2)CC1`: 0% and 0%.
The matching figures for `O=C(CCN1CC[N+]2(CCCC2)CC1)c1ccc([N+](=O)[O-])cc1`: 35% and 12%.
Take `Clc1cccc(/C=C/CN2CC[N+]3(CCCC3)CC2)c1`: the inhibition in vivo at 20 mg/kg with Mus sp. [1] turned out to be 51%; with Mus sp. [2] it was 42%.
For `C(=C\c1ccccc1)/CN1CC[N+]2(CCCC2)CC1` the same measures were 33% and 0%.
For `Clc1ccccc1/C=C/CN1CC[N+]2(CCCC2)CC1` the same measures were 59% and 27%.
The matching figures for `O=C(CCN1CC[N+]2(CCCC2)CC1)c1cccc(O)c1`: 13% and 14%.
Consider `C=C(C)CN1CC[N+]2(CCCC2)CC1`, for which the inhibition in vivo at 20 mg/kg in the assay with Mus sp. [1] and in the assay with Mus sp. [2] was 0% throughout.

The values are drawn from ChEMBL document CHEMBL1136427, “Unique spirocyclopiperazinium salt I: synthesis and structure-activity relationship of spirocyclopiperazinium salts as analgesics” (2003).
